Columns and labels:
Cannabinoid receptor 2 = Cannabinoid receptor 2 (Homo sapiens, UniProt P34972); assay: Displacement of [3H]-CP-55,940 from recombinant human CB2R expressed in HEK293 cell membranes after 90 mins; design: species or system Cell membrane
Cannabinoid receptor 1 = Cannabinoid receptor 1 (Homo sapiens, UniProt P21554); assay: Displacement of [3H]-CP-55,940 from recombinant human CB1R expressed in HEK293 cell membranes after 90 mins; design: species or system Cell membrane
Cannabinoid receptor 1, sequence (P21554 whole entry): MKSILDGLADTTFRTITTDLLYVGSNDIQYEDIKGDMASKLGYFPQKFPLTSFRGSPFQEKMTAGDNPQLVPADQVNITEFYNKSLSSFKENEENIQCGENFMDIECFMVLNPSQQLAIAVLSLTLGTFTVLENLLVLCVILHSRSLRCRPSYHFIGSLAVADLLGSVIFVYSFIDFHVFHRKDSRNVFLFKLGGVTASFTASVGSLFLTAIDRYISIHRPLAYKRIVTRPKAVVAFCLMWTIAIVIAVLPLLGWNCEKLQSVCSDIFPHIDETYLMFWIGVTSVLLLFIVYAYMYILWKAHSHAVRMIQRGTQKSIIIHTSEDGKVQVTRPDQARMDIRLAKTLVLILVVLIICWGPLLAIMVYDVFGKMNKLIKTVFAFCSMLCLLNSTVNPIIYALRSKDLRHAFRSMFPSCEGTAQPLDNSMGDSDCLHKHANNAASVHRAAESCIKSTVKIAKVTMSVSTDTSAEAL

Cannabinoid receptor 2, sequence (P34972 whole entry): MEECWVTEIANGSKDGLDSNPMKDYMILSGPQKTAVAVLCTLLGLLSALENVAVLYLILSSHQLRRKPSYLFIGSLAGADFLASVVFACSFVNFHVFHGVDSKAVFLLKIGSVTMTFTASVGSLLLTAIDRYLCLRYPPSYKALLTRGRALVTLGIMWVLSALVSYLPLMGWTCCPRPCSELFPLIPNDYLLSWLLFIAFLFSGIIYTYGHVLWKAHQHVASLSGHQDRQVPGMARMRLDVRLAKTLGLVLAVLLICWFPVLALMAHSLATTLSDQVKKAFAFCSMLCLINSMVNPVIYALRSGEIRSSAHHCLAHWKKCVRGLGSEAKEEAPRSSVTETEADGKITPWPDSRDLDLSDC

SMILES | IC50 (Cannabinoid receptor 2) | Ki (Cannabinoid receptor 2) | IC50 (Cannabinoid receptor 1) | Ki (Cannabinoid receptor 1)
CCCc1cc(O)c2c(c1)OC(C)(C)[C@@H]1C[C@@H](O)C(C)=C[C@@H]21 | > 10000 nM | > 10000 nM | > 10000 nM | > 10000 nM
CCCc1cc(O)c2c(c1)OC(C)(C)[C@@H]1C[C@H](O)C(C)=C[C@@H]21 | 808 nM | 128 nM | 230 nM | 25.6 nM
CCCc1cc(O)c2c(c1)OC(C)(C)[C@@H]1CCC(C)=C[C@@H]21 [TETRAHYDROCANNABIVARIN] | 17.6 nM | 2.8 nM | 13.1 nM | 1.5 nM
CCCc1cc(O)c2c(c1)OC(C)(C)[C@@H]1CCC(C(=O)O)=C[C@@H]21 | 3720 nM | 590 nM | 1680 nM | 187 nM
CCCc1cc(O)c2c(c1)OC(C)(C)[C@@H]1CCC(CO)=C[C@@H]21 | 29.8 nM | 4.7 nM | 22.7 nM | 2.5 nM
